{"source": "patent US7973033B2", "about": "“Multi-cyclic cinnamide derivatives” (Eisai R&D Management Co., Ltd., priority 2006, dated 2011)"}
{"test_system": "Aβ 42 production", "assay": "Quantification of Aβ Peptide in Culture of Neurons from Rat Fetus Brain", "type": "cell-based", "conditions": "Neuron, 72 h; rat primary neuronal culture (cerebral cortex, embryonic day 18 Wistar rats); medium collected three days after addition of the compound; Aβ ELISA; read-out: Effect of reducing Aβ 42 production IC50", "procedure": "Quantification of Aβ Peptide in Culture of Neurons from Rat Fetus Brain\n(1) Rat Primary Neuronal Culture\nPrimary neuronal cultures were prepared from the cerebral cortex of embryonic day 18 Wistar rats (Charles River Japan, Yokohama, Japan). Specifically, the embryos were aseptically removed from pregnant rats under ether anesthesia. The brain was isolated from the embryo and immersed in an ice-cold L-15 medium (Invitrogen Corp. Cat #11415-064, Carlsbad, Calif., USA, or SIGMA L1518, for example). The cerebral cortex was collected from the isolated brain under a stereoscopic microscope. The cerebral cortex fragments collected were enzymatically treated in an enzyme solution containing 0.25% trypsin (Invitrogen Corp. Cat #15050-065, Carlsbad, Calif., USA) and 0.01% DNase (Sigma D5025, St. Louis, Mo., USA) at 37° C. for 30 minutes to disperse the cells. Here, the enzymatic reaction was stopped by adding inactivated horse serum to the solution. The enzymatically treated solution was centrifuged at 1,500 rpm for five minutes to remove the supernatant. 5 to 10 ml of a medium was added to the resulting cell mass. Neurobasal medium (Invitrogen Corp. Cat #21103-049, Carlsbad, Calif., USA) supplemented with 2% B27 supplement (Invitrogen Corp. Cat #17504-044, Carlsbad, Calif., USA), 25 μM 2-mercaptoethanol (2-ME, WAKO Cat #139-06861, Osaka, Japan), 0.5 mM L-glutamine (Invitrogen Corp. Cat #25030-081, Carlsbad, Calif., USA), and Antibiotics-Antimycotics (Invitrogen Corp. Cat #15240-062, Carlsbad, Calif., USA) was used as the medium (Neurobasal/B27/2-ME). However, the above Neurobasal medium not supplemented with 2-ME (Neurobasal/B27) was used for the assay. The cells were redispersed by mild pipetting of the cell mass to which the medium was added. The cell dispersion was filtered through a 40-μm nylon mesh (Cell Strainer, Cat #35-2340, Becton Dickinson Labware, Franklin Lakes, N.J., USA) to remove the remaining cell mass, and thus a neuronal cell suspension was obtained. The neuronal cell suspension was diluted with the medium and then plated in a volume of 100 μl/well at an initial cell density of 5×10^5 cells/cm^2 in a 96-well polystyrene culture plate pre-coated with poly-L or D-lysine (Falcon Cat #35-3075, Becton Dickinson Labware, Franklin Lakes, N.J., USA coated with poly-L-lysine using the method shown below, or BIOCOAT™ cell environments Poly-D-lysine cell ware 96-well plate, Cat #35-6461, Becton Dickinson Labware, Franklin Lakes, N.J., USA). Poly-L-lysine coating was carried out as follows. 100 μg/ml of a poly-L-lysine (SIGMA P2636, St. Louis, Mo., USA) solution was aseptically prepared with a 0.15 M borate buffer (pH 8.5). 100 μl/well of the solution was added to the 96-well polystyrene culture plate and incubated at room temperature for one or more hours or at 4° C. overnight or longer. The coated 96-well polystyrene culture plate was washed with sterile water four or more times, and then dried or rinsed with, for example, sterile PBS or medium, and used for cell plating. The plated cells were cultured in the culture plate at 37° C. in 5% CO2-95% air for one day. Then, the total amount of the medium was replaced with a fresh Neurobasal™/B27/2-ME medium, and then the cells were cultured for further three days.\nThe drug was added to the culture plate on Day 4 of culture as follows. The total amount of the medium was removed from the wells, and 180 μl/well of Neurobasal medium not containing 2-ME and containing 2% B-27 (Neurobasal/B27) was added thereto. A solution of the test compound in dimethyl sulfoxide (hereinafter abbreviated as DMSO) was diluted with Neurobasal/B27 at 10-fold of the final concentration. 20 μl/well of the dilution was added to and sufficiently mixed with the medium. The final DMSO concentration was 1% or less. Only DMSO was added to the control group.\nThe cells were cultured for three days after addition of the compound, and the total amount of the medium was collected. […]", "units": {"IC50": "nM"}}
{"smiles": "COc1ccc([C@@H]2CCCn3nc(/C=C/c4ccc(-n5cnc(C)c5)c(OC)c4)nc32)cc1", "note": "(single isomer, unassigned) [Example 75, (−)-2-{(E)-2-[3-methoxy-4-(4-methyl-1H-imidazol-1-yl)phenyl]vinyl}-8-(4-methoxyphenyl)-5,6,7,8-tetrahydro-[1,2,4]triazolo[1,5-a]pyridine]", "IC50": 45}
{"smiles": "COc1cc(/C=C/c2nc3n(n2)CCOC3c2ccc(Br)cc2)ccc1-n1cnc(C)c1", "note": "(single isomer, unassigned; (-)) [Example 143, (−)-8-(4-bromophenyl)-2-{(E)-2-[3-methoxy-4-(4-methyl-1H-imidazol-1-yl)phenyl]vinyl}-5,6-dihydro-8H-[1,2,4]triazolo[5,1-c][1,4]oxazine]", "IC50": 22}
{"smiles": "COc1cc(/C=C/c2nnc(Cc3ccc(F)cc3)[nH]2)ccc1-n1cnc(C)c1", "note": "[Example 17, 3-(4-fluorobenzyl)-5-{(E)-2-[3-methoxy-4-(4-methyl-1H-imidazol-1-yl)phenyl]vinyl}-4H-[1,2,4]triazole]", "IC50": 58}
{"smiles": "COc1cc(/C=C/c2nc(-c3ccccc3)cn2C)ccc1-n1cnc(C)c1", "note": "[Example 5, 2-{(E)-2-[3-methoxy-4-(4-methyl-1H-imidazol-1-yl)phenyl]vinyl}-1-methyl-4-phenyl-1H-imidazole]", "IC50": 18}
{"smiles": "COC(=O)c1c(-c2ccc(F)cc2)nc2n1CCC/C2=C\\c1ccc(-n2cnc(C)c2)c(OC)c1", "note": "[Example 22, methyl 2-(4-fluorophenyl)-8-{1-[3-methoxy-4-(4-methyl-1H-imidazol-1-yl)phenyl]-(E)-methylidene}-5,6,7,8-tetrahydroimidazo[1,2-a]pyridine-3-carboxylate]", "IC50": 170}
{"smiles": "COc1cc(/C=C/c2nc(-c3ccc(F)cc3)c3n2CCN(C)C3)ccc1-n1cnc(C)c1", "note": "[Example 15, 1-(4-fluorophenyl)-3-{(E)-2-[3-methoxy-4-(4-methyl-1H-imidazol-1-yl)phenyl]vinyl}-7-methyl-5,6,7,8-tetrahydroimidazo[1,5-a]pyrazine]", "IC50": 180}
{"smiles": "COc1cc(/C=C/c2nc3n(n2)CCC[C@H]3c2ccccc2)ccc1-n1cnc(C)c1", "note": "(single isomer, unassigned) [Example 172, (−)-2-{(E)-2-[3-methoxy-4-(4-methyl-1H-imidazol-1-yl)phenyl]vinyl}-8-phenyl-5,6,7,8-tetrahydro[1,2,4]triazolo[1,5-a]pyridine]", "IC50": 11}
{"smiles": "COc1cc(/C=C/c2nc3n(n2)CCC[C@@H]3c2ccc(Cl)cc2)ccc1-n1cnc(C)c1", "note": "(single isomer, unassigned) [Example 149, (−)-8-(4-chlorophenyl)-2-{(E)-2-[3-methoxy-4-(4-methyl-1H-imidazol-1-yl)phenyl]vinyl}-5,6,7,8-tetrahydro[1,2,4]triazolo[1,5-a]pyridine]", "IC50": 21}
{"smiles": "COc1cc(/C=C/c2nc3n(n2)CCC[C@]3(O)c2ccc(C)cc2)ccc1-n1cnc(C)c1", "note": "(single isomer, unassigned) [Example 155, (−)-2-{(E)-2-[3-methoxy-4-(4-methyl-1H-imidazol-1-yl)phenyl]vinyl}-8-p-tolyl-5,6,7,8-tetrahydro[1,2,4]triazolo[1,5-a]pyridin-8-ol]", "IC50": 39}
{"smiles": "COc1cc(/C=C/c2nc3n(n2)CCC[C@@H]3c2ccc(OC(F)(F)F)cc2)ccc1-n1cnc(C)c1", "note": "[Example 129, (−)-2-{(E)-2-[3-methoxy-4-(4-methyl-1H-imidazol-1-yl)phenyl]vinyl}-8-(4-trifluoromethoxyphenyl)-5,6,7,8-tetrahydro[1,2,4]triazolo[1,5-a]pyridine]", "IC50": 17}
{"smiles": "COc1cc(/C=C/c2nc(-c3ccc(F)cc3)c(C(=O)NCCCl)[nH]2)ccc1-n1cnc(C)c1", "note": "[Example 9, 5-(4-fluorophenyl)-2-{(E)-2-[3-methoxy-4-(4-methyl-1H-imidazol-1-yl)phenyl]vinyl}-1H-imidazole-4-carboxylic acid (2-chloroethyl)amide]", "IC50": 83}
{"smiles": "Cc1cn(-c2ccc(/C=C/c3nc4n(n3)CCCC4c3cc(F)c(F)c(F)c3)cc2F)cn1", "note": "(single isomer, unassigned) [Example 62, (−)-2-{(E)-2-[3-fluoro-4-(4-methyl-1H-imidazol-1-yl)phenyl]vinyl}-8-(3,4,5-trifluorophenyl)-5,6,7,8-tetrahydro[1,2,4]triazolo[1,5-a]pyridine]", "IC50": 23}
{"smiles": "COc1cc(/C=C/c2nnc(C(C)(C)c3ccccc3)[nH]2)ccc1-n1cnc(C)c1", "note": "[Example 49, 3-{(E)-2-[3-methoxy-4-(4-methyl-1H-imidazol-1-yl)phenyl]vinyl}-5-(1-methyl-1-phenylethyl)-4H-[1,2,4]triazole]", "IC50": 63}
{"smiles": "COc1cc(/C=C/c2nc3n(n2)CCCC3c2cc(F)c(F)c(F)c2)ccc1-n1cnc(C)c1", "note": "(single isomer, unassigned) [Example 54, (−)-2-{(E)-2-[3-methoxy-4-(4-methyl-1H-imidazol-1-yl)phenyl]vinyl}-8-(3,4,5-trifluorophenyl)-5,6,7,8-tetrahydro[1,2,4]triazolo[1,5-a]pyridine]", "IC50": 14}
{"smiles": "COc1cc(/C=C/c2nc(-c3ccc(F)cc3)c3n2CCOC3)ccc1-n1cnc(C)c1", "note": "[Example 13, 1-(4-fluorophenyl)-3-{(E)-2-[3-methoxy-4-(4-methyl-1H-imidazol-1-yl)phenyl]vinyl}-5,6-dihydro-8H-imidazo[5,1-c][1,4]oxazine]", "IC50": 170}
{"smiles": "COc1cc(/C=C/c2nc3n(n2)CCCC3c2ccc(F)cc2)ccc1-n1cnc(C)c1", "note": "(single isomer, unassigned) [Example 52, (−)-8-(4-fluorophenyl)-2-{(E)-2-[3-methoxy-4-(4-methyl-1H-imidazol-1-yl)phenyl]vinyl}-5,6,7,8-tetrahydro[1,2,4]triazolo[1,5-a]pyridine]", "IC50": 14}
{"smiles": "COc1cc(/C=C2\\CCCn3c(-c4ccc(F)cc4)cnc32)ccc1-n1cnc(C)c1", "note": "[Example 18, 3-(4-fluorophenyl)-8-{1-[3-methoxy-4-(4-methyl-1H-imidazol-1-yl)phenyl]-(E)-methylidene}-5,6,7,8-tetrahydroimidazo[1,2-a]pyridine]", "IC50": 170}
{"smiles": "COc1cc(/C=C/c2nnc(C(C)c3ccc(F)cc3)[nH]2)ccc1-n1cnc(C)c1", "note": "(racemic) [Example 31, 3-[1-(4-fluorophenyl)ethyl]-5-{(E)-2-[3-methoxy-4-(4-methyl-1H-imidazol-1-yl)phenyl]vinyl}-4H-[1,2,4]triazole]", "IC50": 33}
{"smiles": "COc1cc(/C=C/c2nc3n(n2)CCCC3c2cccc3ccccc23)ccc1-n1cnc(C)c1", "note": "(single isomer, unassigned) [Example 130, (+)-2-{(E)-2-[3-methoxy-4-(4-methyl-1H-imidazol-1-yl)phenyl]vinyl}-8-naphthalen-1-yl-5,6,7,8-tetrahydro[1,2,4]triazolo[1,5-a]pyridine]", "IC50": 13}
{"smiles": "COc1cc(/C=C/c2nc3n(n2)CCCC3c2ccc(C)cc2)ccc1-n1cnc(C)c1", "note": "(single isomer, unassigned) [Example 151, (−)-2-{(E)-2-[3-methoxy-4-(4-methyl-1H-imidazol-1-yl)phenyl]vinyl}-8-p-tolyl-5,6,7,8-tetrahydro[1,2,4]triazolo[1,5-a]pyridine]", "IC50": 16}
{"smiles": "COc1cc(/C=C/c2nnc(CCc3ccc(F)cc3)[nH]2)ccc1-n1cnc(C)c1", "note": "[Example 32, 3-[2-(4-fluorophenyl)ethyl]-5-{(E)-2-[3-methoxy-4-(4-methyl-1H-imidazol-1-yl)phenyl]vinyl}-4H-[1,2,4]triazole]", "IC50": 62}
